We go through seven compounds from patent publication US11643391B2, “Prodrugs and conjugates of dimethyltryptamine” (priority 2021, dated 2023).

A short description of data set [1]: Stability in SGF without pepsin. The format is physicochemical.
A short description of data set [2]: Stability in Mouse Plasma. Type of data set: in vitro ADME. To be noted: for half-life: mouse, plasma.
Data set [3] is described as follows: Stability in SGF with pepsin. Type of data set: physicochemical.
A short description of a further data set: Stability in PBS pH 6.5. As to conditions: for half-life: PBS, pH 6.5, T½.
Another data set is described as follows: physchem. To be noted: buffer, pH 6.5.
The conditions of data set [4]: background statement, cited from earlier work.
Where [5] appears, read: Table 8, if calculated T½ < 0, T½ reported as 9999 min.

For the compound `CC(OC(=O)n1cc(CCN(C)C)c2ccccc21)OC(=O)C(C)(C)C` (racemic) [VLS-03-15], the “Peak Area of MRM: 205.0/159.8 (analyte VLS-03-15 Parent)” value (from here on “Peak Area … (analyte VLS-03-15 Parent)”) is listed as 7.05E+05 in data set [1] (0 min); 6.94E+05 in data set [1] (30 min); 6.55E+05 in data set [1] (60 min); 7.09E+05 in data set [1] (120 min); 6.96E+05 in data set [1] (240 min); 6.10E+05 in data set [1] (VLS-03-15 standard). In addition, the “Peak Area … (analyte VLS-03-15 Parent)” value in data set [3] (0 min) was 6.75E+05; in data set [3] (30 min) it was 7.21E+05; in data set [3] (60 min), 7.26E+05; in data set [3] (120 min), 7.14E+05; in data set [3] (240 min), 7.15E+05; in data set [3] (VLS-03-15 standard), 6.26E+05. Besides, the “Peak Area … (analyte VLS-03-15 Parent)” value in the data set “Stability in PBS pH 6.5” (0 min) worked out at 6.56E+05; in the data set “Stability in PBS pH 6.5” (30 min), 6.55E+05; in the data set “Stability in PBS pH 6.5” (60 min) it was 6.28E+05; in “Stability in PBS pH 6.5” (120 min) it was 5.86E+05; in “Stability in PBS pH 6.5” (240 min), 5.51E+05; in “Stability in PBS pH 6.5” (VLS-03-15 standard), 6.74E+05. Further, the “Remaining Percentage” value in data set [1] (Table 8, 0 min) was 100.00%; in data set [1] (Table 8, 30 min) it was 101.12%; in data set [1] (Table 8, 60 min) it was 103.35%; in data set [1] (Table 8, 120 min) it was 105.28%; in data set [1] (Table 8, 240 min), 97.98%; in data set [2] (Table 9, 0 min), 100.00%. Moreover, the “Remaining Percentage” value in data set [2] (Table 9, 15 min) was 0.00%; in data set [2] (Table 9, 30 min) it was 0.00%; in data set [2] (Table 9, 60 min), 0.00%; in data set [2] (Table 9, 120 min), 0.00%; in data set [3] (Table 8, 0 min) it was 100.00%; in data set [3] (Table 8, 30 min), 97.29%. Moreover, the “Remaining Percentage” value was determined as 107.53% in data set [3] (Table 8, 60 min); 103.18% in data set [3] (Table 8, 120 min); 102.22% in data set [3] (Table 8, 240 min); 100.00% in the data set “Stability in PBS pH 6.5” (Table 8, 0 min); 96.93% in “Stability in PBS pH 6.5” (Table 8, 30 min); 89.82% in the data set “Stability in PBS pH 6.5” (Table 8, 60 min). Further, the “Remaining Percentage” value in “Stability in PBS pH 6.5” (Table 8, 120 min) is recorded as 89.44%; in the data set “Stability in PBS pH 6.5” (Table 8, 240 min) it was 82.54%. For the same compound, the half-life in data set [1] (setting [5]) was 7840 min; in the data set “physchem”, 922 min. The T½ in data set [3] (setting [5]) is 166.65 h.
For `O=C(O)CCCc1ccc(N(CCCl)CCCl)cc1` [Chlorambucil, reference compound], the half-life in “Stability in PBS pH 6.5” (setting [5]) is 47.2 min; in the data set “Stability in PBS pH 6.5” (Table 10), 43.2 min. Moreover, the “Remaining Percentage” value in the data set “Stability in PBS pH 6.5” (Table 8, 0 min) amounted to 100.00%; in “Stability in PBS pH 6.5” (Table 8, 30 min), 64.51%; in the data set “Stability in PBS pH 6.5” (Table 8, 60 min), 42.26%; in “Stability in PBS pH 6.5” (Table 8, 120 min), 16.83%; in the data set “Stability in PBS pH 6.5” (Table 8, 240 min), 2.99%; in the data set “Stability in PBS pH 6.5” (Table 10, 0 min) it was 100.00%. Moreover, the “Remaining Percentage” value in the data set “Stability in PBS pH 6.5” (Table 10, 30 min) was found to be 61.12%; in “Stability in PBS pH 6.5” (Table 10, 60 min), 43.17%; in the data set “Stability in PBS pH 6.5” (Table 10, 120 min) it was 15.12%; in “Stability in PBS pH 6.5” (Table 10, 240 min), 2.15%.
`CN(C)CCc1c[nH]c2ccccc12` [DMT, N,N-dimethyltryptamine]: the estimated half-life result in data set [4] (at higher doses) is recorded as “less than fifteen minutes”. Further, in data set [4] (converted by monoamine oxidases), the oral bioavailability entry is recorded as “poor oral bioavailability”.
On to `CC[C@H]1OC(=O)[C@H](C)[C@@H](O[C@H]2C[C@@](C)(OC)[C@@H](O)[C@H](C)O2)[C@H](C)[C@@H](O[C@@H]2O[C@H](C)C[C@H](N(C)C)[C@H]2O)[C@](C)(O)C[C@@H](C)C(=O)[C@H](C)[C@@H](O)[C@]1(C)O` [Erythromycin, reference compound], for which the “Remaining Percentage” value in data set [1] (Table 8, 0 min) was found to be 100.00%; in data set [1] (Table 8, 30 min), 52.67%; in data set [1] (Table 8, 60 min) it was 28.46%; in data set [1] (Table 8, 120 min) it was 8.27%; in data set [1] (Table 8, 240 min) it was 1.47%; in data set [1] (Table 10, 0 min) it was 100.00%. For the same compound, the “Remaining Percentage” value stood at 59.45% in data set [1] (Table 10, 30 min); 33.60% in data set [1] (Table 10, 60 min); 10.27% in data set [1] (Table 10, 120 min); 1.20% in data set [1] (Table 10, 240 min); 100.00% in data set [3] (Table 8, 0 min); 56.55% in data set [3] (Table 8, 30 min). Also, the “Remaining Percentage” value in data set [3] (Table 8, 60 min) was 37.33%; in data set [3] (Table 8, 120 min), 14.06%; in data set [3] (Table 8, 240 min), 2.14%; in data set [3] (Table 10, 0 min), 100.00%; in data set [3] (Table 10, 30 min), 56.55%; in data set [3] (Table 10, 60 min), 34.88%. The “Remaining Percentage” value in data set [3] (Table 10, 120 min) was determined as 11.22%; in data set [3] (Table 10, 240 min), 1.60%. Further, the half-life in data set [1] (setting [5]) is 39.5 min; in data set [1] (Table 10, read-out: T½), 37.4 min; in data set [3] (setting [5]), 0.727 h; in data set [3] (Table 10, read-out: T½), 0.671 h.
On to `CC(C)[N+](C)(CCOC(=O)C1c2ccccc2Oc2ccccc21)C(C)C` [Propantheline, reference compound], for which the “Remaining Percentage” value in data set [2] (Table 9, 0 min) is 100.00%; in data set [2] (Table 9, 15 min), 85.78%; in data set [2] (Table 9, 30 min), 70.74%; in data set [2] (Table 9, 60 min), 29.46%; in data set [2] (Table 9, 120 min) it was 8.74%; in data set [2] (Table 11, 0 min), 100.00%. The “Remaining Percentage” value in data set [2] (Table 11, 15 min) is 80.81%; in data set [2] (Table 11, 30 min), 64.04%; in data set [2] (Table 11, 60 min), 34.86%; in data set [2] (Table 11, 120 min), 9.05%. For the same compound, the half-life was determined as 32.6 min in data set [2] (Table 9, read-out: T½) and 34.1 min in data set [2] (Table 11, read-out: T½).
For `C[N+](C)(CCc1c[nH]c2ccccc12)COP(=O)([O-])O` [VLS-02-23], the T½ (in data set [1] (Table 10); in “Stability in PBS pH 6.5” (Table 10)) was 166.65 h each time. The “Remaining Percentage” value amounted to 100.00% in data set [1] (Table 10, 0 min); 98.76% in data set [1] (Table 10, 30 min); 107.08% in data set [1] (Table 10, 60 min); 101.90% in data set [1] (Table 10, 120 min); 108.80% in data set [1] (Table 10, 240 min); 100.00% in data set [2] (Table 11, 0 min). Moreover, the “Remaining Percentage” value was found to be 114.24% in data set [2] (Table 11, 15 min); 110.21% in data set [2] (Table 11, 30 min); 109.95% in data set [2] (Table 11, 60 min); 91.16% in data set [2] (Table 11, 120 min); 100.00% in data set [3] (Table 10, 0 min); 96.70% in data set [3] (Table 10, 30 min). Further, the “Remaining Percentage” value in data set [3] (Table 10, 60 min) is 106.43%; in data set [3] (Table 10, 120 min), 102.36%; in data set [3] (Table 10, 240 min), 96.82%; in “Stability in PBS pH 6.5” (Table 10, 0 min) it was 100.00%; in the data set “Stability in PBS pH 6.5” (Table 10, 30 min), 104.71%; in “Stability in PBS pH 6.5” (Table 10, 60 min) it was 106.37%. Besides, the “Remaining Percentage” value in the data set “Stability in PBS pH 6.5” (Table 10, 120 min) worked out at 107.29%; in “Stability in PBS pH 6.5” (Table 10, 240 min), 117.35%. The half-life in data set [2] (Table 11, read-out: T½) came to 568 min; in data set [3] (Table 10, read-out: T½) it was 104 h.
For `CCCCC(=O)Oc1cccc2ccn(CCN(C)C)c12` [VLS-03-1], the “Peak Area of MRM: 205.0/159.8 (analyte VLS-03-1 Parent)” value (shortened to “Peak Area … (analyte VLS-03-1 Parent)”) is 4.53E+04 in data set [1] (0 min); 4.75E+04 in data set [1] (30 min); 4.51E+04 in data set [1] (60 min); 4.66E+04 in data set [1] (120 min); 4.57E+04 in data set [1] (240 min); 3.75E+04 in data set [1] (VLS-03-1 standard). Also, the “Peak Area … (analyte VLS-03-1 Parent)” value was found to be 5.72E+04 in data set [3] (0 min); 5.37E+04 in data set [3] (30 min); 5.01E+04 in data set [3] (60 min); 5.48E+04 in data set [3] (120 min); 5.27E+04 in data set [3] (240 min); 4.22E+04 in data set [3] (VLS-03-1 standard). For the same compound, the “Peak Area … (analyte VLS-03-1 Parent)” value in “Stability in PBS pH 6.5” (0 min) is 5.04E+04; in “Stability in PBS pH 6.5” (30 min) it was 4.71E+04; in the data set “Stability in PBS pH 6.5” (60 min), 4.71E+04; in “Stability in PBS pH 6.5” (120 min), 4.86E+04; in the data set “Stability in PBS pH 6.5” (240 min) it was 4.75E+04; in “Stability in PBS pH 6.5” (VLS-03-1 standard), 4.49E+04. For the same compound, the “Remaining Percentage” value was determined as 100.00% in data set [1] (Table 8, 0 min); 106.25% in data set [1] (Table 8, 30 min); 99.72% in data set [1] (Table 8, 60 min); 104.22% in data set [1] (Table 8, 120 min); 103.22% in data set [1] (Table 8, 240 min); 100.00% in data set [2] (Table 9, 0 min). For the same compound, the “Remaining Percentage” value in data set [2] (Table 9, 15 min) is 0.00%; in data set [2] (Table 9, 30 min), 0.00%; in data set [2] (Table 9, 60 min) it was 0.00%; in data set [2] (Table 9, 120 min), 0.00%; in data set [3] (Table 8, 0 min), 100.00%; in data set [3] (Table 8, 30 min), 101.74%. The “Remaining Percentage” value in data set [3] (Table 8, 60 min) turned out to be 90.49%; in data set [3] (Table 8, 120 min), 102.16%; in data set [3] (Table 8, 240 min), 96.47%; in the data set “Stability in PBS pH 6.5” (Table 8, 0 min), 100.00%; in the data set “Stability in PBS pH 6.5” (Table 8, 30 min), 96.32%; in “Stability in PBS pH 6.5” (Table 8, 60 min), 99.71%. Also, the “Remaining Percentage” value in the data set “Stability in PBS pH 6.5” (Table 8, 120 min) stood at 100.03%; in the data set “Stability in PBS pH 6.5” (Table 8, 240 min), 101.35%. The T½ (in data set [1] (setting [5]); in the data set “Stability in PBS pH 6.5” (setting [5])) was 166.65 h in each case. In data set [3] (setting [5]), the half-life is 149 h.
